Laboratory results published in the supplement of paper PMC10307832.

What was measured:
Assay in all cases: relative viability (nuclei count vs DMSO), 5 days (fraction); higher = more cells survive
Motesanib + AZD7762 = compound: CC1(C)CNc2cc(NC(=O)c3cccnc3NCc3ccncc3)ccc21 [Motesanib] + NC(=O)Nc1cc(-c2cccc(F)c2)sc1C(=O)N[C@H]1CCCNC1 [AZD7762] (partner 0.2 µM)
Method in brief: (§1)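 Relative viability divides the nuclei count in treated wells by that in vehicle wells. Lung cancer cell lines were seeded in 1536-well plates, dosed by pin tool the next day, and fixed and stained after 5 days in one step with final 0.05% Triton X-100, 1% formaldehyde and 1 ug/ml Hoechst. Dosing was a single drug or a fixed anchor-drug dose plus five library-drug doses (not always all listed) in √10 steps, and values are medians of duplicate plates imaged at 4×.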

Motesanib + Palbociclib = compound: CC1(C)CNc2cc(NC(=O)c3cccnc3NCc3ccncc3)ccc21 [Motesanib] + CC(=O)c1c(C)c2cnc(Nc3ccc(N4CCNCC4)cn3)nc2n(C2CCCC2)c1=O [Palbociclib] (partner 0.5 µM)
Method in brief: as §1

[1] = compound: C[C@@]1(C(=O)Nc2ccc(F)nc2)CCCN1c1nc(Nc2cc(C3CC3)n[nH]2)c2cccn2n1 + CC(=O)c1c(C)c2cnc(Nc3ccc(N4CCNCC4)cn3)nc2n(C2CCCC2)c1=O [Palbociclib] (partner 0.5 µM)
Method in brief: as §1

Motesanib + Luminespib = compound: CC1(C)CNc2cc(NC(=O)c3cccnc3NCc3ccncc3)ccc21 [Motesanib] + CCNC(=O)c1noc(-c2cc(C(C)C)c(O)cc2O)c1-c1ccc(CN2CCOCC2)cc1 [Luminespib] (partner 0.01 µM)
Method in brief: as §1

Cell Line	relative viability (Motesanib + AZD7762; first compound 0.01 µM)	relative viability (Motesanib + AZD7762; first compound 0.03162 µM)	relative viability (Motesanib + AZD7762; first compound 0.1 µM)	relative viability (Motesanib + AZD7762; first compound 0.3162 µM)	relative viability (Motesanib + AZD7762; first compound 1 µM)	relative viability (Motesanib + Palbociclib; first compound 0.01 µM)	relative viability (Motesanib + Palbociclib; first compound 0.03162 µM)	relative viability (Motesanib + Palbociclib; first compound 0.1 µM)	relative viability (Motesanib + Palbociclib; first compound 0.3162 µM)	relative viability (Motesanib + Palbociclib; first compound 1 µM)	relative viability ([1]; first compound 0.04 µM)	relative viability ([1]; first compound 0.1265 µM)	relative viability ([1]; first compound 0.4 µM)	relative viability ([1]; first compound 1.265 µM)	relative viability (Motesanib + Luminespib; first compound 0.01 µM)	relative viability (Motesanib + Luminespib; first compound 0.03162 µM)	relative viability (Motesanib + Luminespib; first compound 0.1 µM)	relative viability (Motesanib + Luminespib; first compound 0.3162 µM)	relative viability (Motesanib + Luminespib; first compound 1 µM)
HCC-44	0.93	1.05	1.13	1.08	1.02	0.945	0.944	1.02	0.972	0.942	0.846	0.904	0.803	0.885	1.07	0.964	0.884	1.24	1.2
HCC-827	0.216	0.29	0.196	0.213	0.175	0.569	0.437	0.459	0.546	0.439	0.418	0.466	0.48	0.459	0.777	0.809	0.775	0.75	0.576
NCI-H1623	–	–	–	–	–	–	–	–	–	–	–	–	–	–	0.605	0.506	0.49	0.306	0.515
NCI-H2347	0.738	0.825	0.749	0.674	0.712	0.452	0.428	0.404	0.469	0.437	0.405	0.415	0.386	0.436	0.858	0.254	0.5	0.48	0.4
PC-14	0.306	0.296	0.286	0.41	0.329	0.465	0.539	0.539	0.512	0.593	0.552	0.469	0.49	0.491	0.117	0.142	0.126	0.218	0.154
NCI-H1651	0.401	0.499	0.547	0.451	0.463	0.528	0.523	0.538	0.508	0.513	0.494	0.442	0.439	0.491	0.673	0.89	0.8	0.921	0.892
HARA	0.17	0.277	0.48	0.362	0.207	0.281	0.211	0.282	0.253	0.315	0.238	0.189	0.159	0.218	0.894	0.628	0.786	0.871	0.612
NCI-H1650	–	–	–	–	–	0.351	0.385	0.349	0.346	0.343	0.324	0.36	0.328	0.314	0.181	0.179	0.185	0.19	0.2
NCI-H1395	0.387	0.372	0.39	0.405	0.399	0.682	0.602	0.623	0.661	0.661	0.658	0.603	0.609	0.625	0.662	0.665	0.65	0.876	0.866
LU99A	0.39	0.361	0.382	0.399	0.355	0.412	0.489	0.435	0.334	0.417	0.273	0.208	0.173	0.26	0.228	0.187	0.336	0.243	0.25
NCI-H1355	0.778	0.54	0.837	0.687	0.673	0.429	0.413	0.397	0.392	0.38	0.312	0.269	0.242	0.321	0.719	0.659	0.658	0.77	0.637
HCC-78	0.657	0.547	0.907	–	0.795	0.442	0.467	0.478	0.511	0.56	0.446	0.377	0.464	0.363	–	–	–	–	–
NCI-H1563	–	–	–	–	–	–	–	–	–	–	–	–	–	–	0.523	0.504	0.54	0.542	0.487
HCC-15	1.34	1.18	1.06	1.36	1.33	0.777	0.668	0.695	0.768	0.702	0.667	0.579	0.529	0.598	0.33	0.38	0.314	0.278	0.545
EKVX	0.716	0.653	0.684	0.68	0.665	0.415	0.347	0.378	0.36	0.398	0.387	0.277	0.279	0.286	0.847	0.836	0.833	0.877	0.826
NCI-H2087	–	–	1.41	1.13	1.55	–	–	0.26	0.232	0.26	0.218	0.188	0.177	0.181	0.159	0.174	0.149	0.149	0.145
LK-2	0.364	0.337	0.281	0.497	0.371	0.784	0.659	0.537	0.667	0.708	0.381	0.287	–	0.41	0.213	0.191	–	0.189	0.192
NCI-H1437	1.05	1.08	1.15	1.11	1.11	0.271	0.266	0.295	0.302	0.278	0.302	0.278	0.252	0.234	1.13	1.07	1.08	1.1	1.15
COR-L23	–	–	–	–	–	0.297	0.26	0.272	0.273	0.32	0.242	0.308	0.197	0.173	0.605	0.694	0.728	0.665	0.738
ABC-1	0.811	1	0.762	0.904	0.846	0.633	0.541	0.7	0.938	0.763	0.647	0.42	0.437	0.477	0.637	0.867	0.556	0.716	0.866
